Values of other authors in publication PMC3272643 (Organic process research & development, 2012).

System: peptide-cleaving proteases

gramicidin S
resistance to peptide-cleaving proteases: significant resistance to peptide-cleaving proteases
